The values that follow come from patent US11304970B2, “EGFR gene expression-suppressing siRNA, precursor of same, and applications thereof” (JIANGSU MICROMEDMARK BIOTECH CO., LTD., priority 2016, dated 2022).

The structures appear in SMILES notation.

For this experiment, the system named is mouse Lewis lung cancer. Kind of experiment: Survival (Kaplan-Meier) and micro-CT tumour examination in Lewis lung cancer mice (Example 3). Conditions: 5 mg/kg, once every 3 days, 7 times, plasmid intravenous, Gefitinib oral.

Description: To further study the therapeutic effect of the EGFR siRNA plasmid on mouse Lewis lung cancer, after successful model construction of Lewis lung cancer mice, we performed treatment in the following three groups: the EGFR-si plasmid group, Gefitinib group and control plasmid group, respectively. […] The EGFR-si plasmid and control plasmid were administered by intravenous injection, and Gefitinib was administered orally. The dosage in each treatment group was 5 mg/kg, and the administration interval was once every 3 days, for a total of 7 times. After the treatment, we recorded the survival situation of the mice and plotted the Kaplan-Meier survival curve using the Graphpad Prism statistical software.

`COc1cc2ncnc(Nc3ccc(F)c(Cl)c3)c2cc1OCCCN1CCOCC1` [Gefitinib]: the “change of lung tumours after the treatment (micro-CT)” value is on record as “the tumours generally grew”.
